Measurements: article PMC10111022, “Comparison of pharmacological inhibitors of lysine-specific demethylase 1 in glioblastoma stem cells reveals inhibitor-specific efficacy profiles” (Frontiers in Neurology, 2023)

Legend:
[1] = system: MDA-GSC20 orthotopic xenograft; assay: Intracranial orthotopic xenograft model, bioluminescence tumor burden and survival; format: in vivo, athymic nude mice
Method: All animal experiments were approved by the University of Texas MD Anderson Cancer Center Institutional Animal Care and Use Committee (IACUC) under protocol 638 (P.I. Chandra). An equal number of male and female athymic nude mice aged 4–6 weeks old were bolted with guide screws by MD Anderson’s Brain Tumor Center Animal Core as previously described ([16]). Ketamine/xylazine was administered for anesthesia and buprenorphine or buprenorphine sustained-release (SR) was administered for analgesia during and after the surgery. MDA-GSC20 luciferase labelled cells were resuspended in PBS and 500,000 cells were intracranially implanted into each mouse via guide screw. To monitor tumor engraftment and tumor progression throughout treatment, each mouse was imaged weekly using an IVIS 200 imager (Perkin Elmer; Waltham, MA). Mice were anesthetized via inhalation of isoflurane and injected with 200 μL of D-Luciferin (GoldBio; St Louis, MO) subcutaneously. Bioluminescence signal in the mice was read and reported as photons/s.
(§1) Once confirmation of intracranial tumor engraftment at 7 days post-engraftment, the mice were equally randomized into groups to receive either GSK-LSD1 or the vehicle control. The mice received GSK-LSD1 1 mg/kg diluted in DMSO and PBS (5 and 95%, respectively) via intraperitoneal injection (200 μL/mouse) while the control mice received the untreated vehicle in parallel. In accordance with the approved IACUC protocol (No: 638-RN03) at MD Anderson Cancer Center, treatment continued until the mice succumbed to tumor burden and were found in a moribund condition as determined by neurological impairment (hydrocephalus, seizures, inactivity, and/or ataxia) or morbidity (hunched posture or weight loss). At this time mice were euthanized by both carbon dioxide exposure and cervical dislocation. […]

NK or T-cells = assay: Flow cytometry of peripheral blood NK and T-cell subsets at day 50; format: in vivo, athymic nude mice; conditions: peripheral blood mononuclear cells
Method: as §1, with “dislocation. Flow cytometric characterization of immune cell subsets was carried out in blood samples obtained from mice (four control mice and six GSK-LSD1 mice) in each group at day 50 via cardiac puncture and the sample was processed using Ficoll (GE Healthcare; Chicago, IL) centrifugation to collect the peripheral blood mononuclear cells (PBMCs). Next, PBMCs were stained with the Ghost Dye Violet (Tonbo; San Diego, CA) and then incubated with antibodies at 4°C for 25 min before analysis.” for “dislocation.”

MDA-GSC lines = assay: Cell viability across the panel of nine MDA-GSC lines; format: cell-based, Human; conditions: many/several MDA-GSC lines, dose response curves Figure 2
Method: (§2) MDA-GSCs were plated at 50,000 cells/well into 12-well plates at and allowed to grow for 5 days until neurospheres were formed. The cells were then treated with either TCP, GSK-LSD1, or RN-1 at various concentrations for 5 days. Next, the cells were collected and neurospheres were dissociated with Accutase (BioLegend; San Diego, CA). Cell viability was determined using a trypan dye exclusion assay and read with the Vi-Cell XR Cell Viability Analyzer (Beckman Coulter; Brea, CA). NHAs were plated at 50,000 cells/well into 12-well plates and allowed to adhere overnight. The following day, NHAs were treated with the LSD1 inhibitors. After 5 days, the cells were detached using TrypLE and assessed with the trypan blue dye exclusion assay.
(§3) The alamarBlue cell viability (Bio-Rad; Hercules, CA) was performed on the MDA-GSCs according to the manufacturer’s protocol. The cells were plated at 5,000 cell/well into a 96-well plate and allowed to grow for 5 days. After 5 days, the alamarBlue reagent was added and fluorescence was measured with the Synergy 2 (BioTek Instruments; Winooski, VT) plate reader according to the manufacturer’s protocol.

NHA = assay: Cell viability dose response (IC50), normal human astrocytes; format: cell-based
Method: as §2, §3

MDA-GSC 311 = assay: Cell viability dose response (IC50), MDA-GSC 311; format: cell-based; conditions: Homo sapiens, mean of three independent experiments
Method: as §2, §3

MDA-GSC20 = assay: qPCR of resistance-related genes, MDA-GSC20; format: cell-based, Human; conditions: MDA-GSC20 (resistant)
Method: Total RNA was extracted using RNeasy Plus Mini Kit (Qiagen; Hilden, Germany) following the manufacturer’s protocol. cDNA was synthesized with the iScript cDNA synthesis kit (Bio-Rad; Hercules, CA), qPCR was performed using Forget-Me-Not EvaGreen qPCR kit (Biotium; Fremont, CA), and samples were analyzed with the LightCycler96 (Roche; Basel, Switzerland). Cq values were normalized to PPIA and reported as relative fold change from untreated control.

MDA-GSC 23 = assay: Cell viability dose response (IC50), MDA-GSC 23; format: cell-based; conditions: Homo sapiens, mean of three independent experiments
Method: as §2, §3

MDA-GSC 7–11 = assay: Cell viability dose response (IC50), MDA-GSC 7–11; format: cell-based; conditions: Homo sapiens, mean of three independent experiments
Method: as §2, §3

[2] = system: MDA-GSC311, MDA-GSC20, MDA-GSC23, MDA-GSC8-11; assay: Colony (neurosphere) formation assay; format: cell-based, Human; conditions: three of the four cell lines; 200-400 μM, 3 weeks
Method: Colony formation assay was performed on MDA-GSC 311, MDA-GSC 20, MDA-GSC 23, and MDA-GSC 8–11. Cells were plated in triplicate into clear, flat-bottom 96-well plates at 3 cells/well into 100 μL of media. MDA-GSCs were treated with 100 μL of GSK-LSD1 and allowed to grow for 3 weeks at 37°C before scoring. The final concentration of GSK-LSD1 in each well was determined using the IC50 in each cell line (MDA-GSC 311 at 200 μM, MDA-GSC 20 at 300 μM, MDA-GSC 23 at 200 μM, MDA-GSC 8–11 at 400 μM). Clonogenicity was scored using the Cell3iMager (Screen Life Science; Elk Grove Village, IL) to count the number of wells with colony formation as positive and wells without colony formation as negative.

c1ccc([C@@H]2C[C@H]2NC2CCNCC2)cc1 [GSK-LSD1]
rate of tumor progression ([1]; 1 mg/kg intraperitoneal, week 11, vs control mice): lower rate of tumor progression
tumor burden (bioluminescence) ([1]; 1 mg/kg intraperitoneal, week seven, vs control): strong regression in tumor burden
overall survival ([1]; continued dosing beyond week 11): ineffective to improve overall survival
cytotoxic effects on NK or T-cells (NK or T-cells): does not have cytotoxic effects
concentrations at which MDA-GSC viability was reduced (MDA-GSC lines): 250 to 750 µM
IC50 (NHA; Homo sapiens, Astrocyte, NHA, mean of three independent experiments): > 750 µM
effect on NHA viability (NHA; NHA treated at the maximum concentration tested for each compound): minimal effect
IC50 (MDA-GSC 311): > 750 µM
expression of resistance-related genes (FTH1, RAB39B, HKDC1, FAM213A) (MDA-GSC20): increase in all four genes
IC50 (MDA-GSC 23): > 750 µM
IC50 (MDA-GSC 7–11): 606 µM
capacity to form neurospheres from single cells [2]: reduced capacity to form neurospheres
